Experiments:
MTT cytotoxicity assay = format: cell-based, African green monkeys; settings: African green monkey, Vero E6 cells
DENV-2 strain 16681 [1] = assay: Virus yield assay (TCID50); format: cell-based; settings: Dengue virus, DENV2, 96 h post-treatment
DENV-2 strain 16681 [2] = assay: In vitro infectivity assay (NS4B immunofluorescence/DAPI) in Vero E6 cells; format: cell-based; settings: for EC50: Dengue virus, DENV2, Vero C1008, 96 h, read-out: Inhibition of DENV-2 Infectivity (EC50, μM); for Selectivity Index (CC50/EC50): CC50 Vero E6 / EC50 infectivity
DENV-2 = assay: Time-of-addition/removal assay with DENV-2; format: cell-based; settings: Dengue virus, DENV2; compound applied 2 h after infection, 18 h incubation; read-out: EC50 for viral infectivity, post-entry treatment
DENV-2 NS2B-NS3 protease = DENV-2 NS2B-NS3 protease (Dengue virus type 2, UniProt P29990); assay: Trans-cleavage FRET assay with DENV-2 NS2B-NS3 protease; format: cell-based; settings: for inhibition at 10 µM: read-out: Reduction of DENV-2 NS2B-NS3 protease activity
Sequence of DENV-2 NS2B-NS3 protease (P29990 1476-2093): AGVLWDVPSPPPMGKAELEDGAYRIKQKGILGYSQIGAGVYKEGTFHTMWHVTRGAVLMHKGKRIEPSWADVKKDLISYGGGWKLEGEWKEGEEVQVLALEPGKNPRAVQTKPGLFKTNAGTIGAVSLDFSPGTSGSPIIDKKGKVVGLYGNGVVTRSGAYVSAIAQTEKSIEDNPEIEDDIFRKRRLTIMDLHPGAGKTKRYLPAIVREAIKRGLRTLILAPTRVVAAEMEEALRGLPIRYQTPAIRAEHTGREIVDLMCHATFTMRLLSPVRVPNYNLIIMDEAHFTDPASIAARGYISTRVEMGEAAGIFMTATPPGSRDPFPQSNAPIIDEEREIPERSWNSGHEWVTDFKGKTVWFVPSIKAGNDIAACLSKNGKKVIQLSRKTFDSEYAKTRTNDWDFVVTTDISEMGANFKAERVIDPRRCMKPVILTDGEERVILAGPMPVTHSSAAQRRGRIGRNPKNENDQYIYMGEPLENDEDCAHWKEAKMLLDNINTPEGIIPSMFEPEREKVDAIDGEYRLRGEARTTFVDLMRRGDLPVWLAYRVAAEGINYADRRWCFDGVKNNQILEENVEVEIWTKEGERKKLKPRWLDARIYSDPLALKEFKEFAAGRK
Sequence of DENV-2 NS2B-NS3 protease (P29990 1346-1475): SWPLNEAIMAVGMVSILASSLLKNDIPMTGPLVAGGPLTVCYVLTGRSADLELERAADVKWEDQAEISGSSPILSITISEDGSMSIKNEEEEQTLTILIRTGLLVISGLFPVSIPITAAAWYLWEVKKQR

[3] = trans-cleavage FRET assay, cells expressing CFP-trrg-YFP transfected with DENV-2 NS2B-NS3

SMILES | CC50 at 96 h (MTT cytotoxicity assay) [µM] | EC50 (DENV-2 strain 16681 [1]) [µM] | EC50 (DENV-2 strain 16681 [2]) [µM] | EC50 (DENV-2) [µM] | inhibition at 10 µM (DENV-2 NS2B-NS3 protease) [%] | also measured
COC(=O)CCC(NC(=O)C1OC(OC2C(OC3CCC4(C)C(CCC5(C)C4C(=O)C=C4C6CC(C)(C(=O)O)CCC6(C)CCC45C)C3(C)C)OC(C(=O)NC(CCC(=O)OC)C(=O)OC)C(O)C2O)C(O)C(O)C1O)C(=O)OC (stereo not shown) [Compound 11] | > 100 | 0.042 | 0.034 ± 0.001 | 0.005 | > 20 | 
COC(=O)CCCCCCNC(=O)C1OC(OC2C(OC3CCC4(C)C(CCC5(C)C4C(=O)C=C4C6CC(C)(C(=O)O)CCC6(C)CCC45C)C3(C)C)OC(C(=O)NCCCCCCC(=O)OC)C(O)C2O)C(O)C(O)C1O (stereo not shown) [Compound 19] | > 100 | 0.43 | 2.34 ± 0.08 | 1.91 | > 20 | Selectivity Index (CC50/EC50) (DENV-2 strain 16681 [2]): >42
CCOC(=O)CCNC(=O)C1OC(OC2C(OC3CCC4(C)C(CCC5(C)C4C(=O)C=C4C6CC(C)(C(=O)O)CCC6(C)CCC45C)C3(C)C)OC(C(=O)NCCC(=O)OCC)C(O)C2O)C(O)C(O)C1O (stereo not shown) [Compound 17] | > 100 | 0.79 | 4.34 ± 0.008 | 2.99 | > 20 | Selectivity Index (CC50/EC50) (DENV-2 strain 16681 [2]): >23
CN(C)[C@@H]1C(O)=C(C(N)=O)C(=O)[C@@]2(O)C(O)=C3C(=O)c4c(O)cccc4[C@@](C)(O)[C@H]3C[C@@H]12 [T, tetracycline, reference compound] |  |  |  |  | > 20 | 
COC(=O)C(CCC(=O)O)NC(=O)C1OC(OC2C(OC3CCC4(C)C(CCC5(C)C4C(=O)C=C4C6CC(C)(C(=O)O)CCC6(C)CCC45C)C3(C)C)OC(C(=O)NC(CCC(=O)O)C(=O)OC)C(O)C2O)C(O)C(O)C1O (stereo not shown) [Compound 12] |  |  |  |  | > 20 | 
CCOC(=O)C(Cc1ccccc1)NC(=O)C1OC(OC2C(OC3CCC4(C)C(CCC5(C)C4C(=O)C=C4C6CC(C)(C(=O)NC(Cc7ccccc7)C(=O)OCC)CCC6(C)CCC45C)C3(C)C)OC(C(=O)NC(Cc3ccccc3)C(=O)OCC)C(O)C2O)C(O)C(O)C1O (stereo not shown) [Compound 8] |  |  |  |  | > 20 | 
CC1(C)[C@@H](O[C@H]2O[C@H](C(=O)O)[C@@H](O)[C@H](O)[C@H]2O[C@@H]2O[C@H](C(=O)O)[C@@H](O)[C@H](O)[C@H]2O)CC[C@]2(C)[C@H]3C(=O)C=C4[C@@H]5C[C@@](C)(C(=O)O)CC[C@]5(C)CC[C@@]4(C)[C@]3(C)CC[C@@H]12 [Compound 1, Glycyrrhizic acid, reference compound] |  |  |  |  |  | NS2B-NS3 Protease (IC50, μM) (DENV-2 NS2B-NS3 protease; [3]): no inhibitory effect
COC(=O)CCCCCCCCCCNC(=O)C1OC(OC2C(OC3CCC4(C)C(CCC5(C)C4C(=O)C=C4C6CC(C)(C(=O)O)CCC6(C)CCC45C)C3(C)C)OC(C(=O)NCCCCCCCCCCC(=O)OC)C(O)C2O)C(O)C(O)C1O (stereo not shown) [Compound 20] |  |  |  |  | > 20 | IC50 (DENV-2 NS2B-NS3 protease; [3]): > 10 µM
CCOC(=O)C(CC(C)C)NC(=O)C1OC(OC2C(OC3CCC4(C)C(CCC5(C)C4C(=O)C=C4C6CC(C)(C(=O)O)CCC6(C)CCC45C)C3(C)C)OC(C(=O)NC(CC(C)C)C(=O)OCC)C(O)C2O)C(O)C(O)C1O (stereo not shown) [Compound 16] |  |  |  |  | > 20 | IC50 (DENV-2 NS2B-NS3 protease; [3]): > 10 µM

Source: article PMC11680386 (Viruses, 2024)
